Measured values as given in ChEMBL document CHEMBL3616428, “Recent developments regarding the use of thieno[2,3-d]pyrimidin-4-one derivatives in medicinal chemistry, with a focus on their synthesis and anticancer properties” (Eur J Med Chem, 2015).

Experiments:
HCT-116 [1] = test: Anticancer activity against human HCT116 cells; format: functional, cell-based
HCT-116 [2] = test: Potency index, ratio imatinib IC50 to compound IC50 for human HCT116 cells; format: functional
[3] = Anticancer activity against human Chronic myeloid leukemia cells at 20 uM after 24 hrs by MTT assay; format: functional; conditions: Leukemia cell
[4] = Anticancer activity against human Chronic myeloid leukemia cells at 10 uM after 24 hrs by MTT assay; format: functional; conditions: Leukemia cell
HepG2 [5] = test: Anticancer activity against human HepG2 cells at 40 ug/ml after 72 hrs by MTT assay; format: functional; conditions: HepG2, 72 h
MCF7 [6] = test: Anticancer activity against human MCF7 cells at 40 ug/ml after 72 hrs by MTT assay; format: functional; conditions: MCF7, 72 h
HepG2 [7] = test: Anticancer activity against human HepG2 cells; format: functional, cell-based
[8] = Anticancer activity against human […] cells after 72 hrs by MTT assay; format: functional, cell-based
MCF7 [9] = test: Anticancer activity against human MCF7 cells after 72 hrs by MTT assay; format: functional, cell-based; conditions: MCF7, 72 h
HepG2 [10] = test: Anticancer activity against human HepG2 cells after 72 hrs by MTT assay; format: functional, cell-based; conditions: HepG2, 72 h
[11] = molecular target: Poly [ADP-ribose] polymerase 1 (Homo sapiens, UniProt P09874); test: Inhibition of PARP1 (unknown origin)
Sequence of Poly [ADP-ribose] polymerase 1 (P09874 whole entry): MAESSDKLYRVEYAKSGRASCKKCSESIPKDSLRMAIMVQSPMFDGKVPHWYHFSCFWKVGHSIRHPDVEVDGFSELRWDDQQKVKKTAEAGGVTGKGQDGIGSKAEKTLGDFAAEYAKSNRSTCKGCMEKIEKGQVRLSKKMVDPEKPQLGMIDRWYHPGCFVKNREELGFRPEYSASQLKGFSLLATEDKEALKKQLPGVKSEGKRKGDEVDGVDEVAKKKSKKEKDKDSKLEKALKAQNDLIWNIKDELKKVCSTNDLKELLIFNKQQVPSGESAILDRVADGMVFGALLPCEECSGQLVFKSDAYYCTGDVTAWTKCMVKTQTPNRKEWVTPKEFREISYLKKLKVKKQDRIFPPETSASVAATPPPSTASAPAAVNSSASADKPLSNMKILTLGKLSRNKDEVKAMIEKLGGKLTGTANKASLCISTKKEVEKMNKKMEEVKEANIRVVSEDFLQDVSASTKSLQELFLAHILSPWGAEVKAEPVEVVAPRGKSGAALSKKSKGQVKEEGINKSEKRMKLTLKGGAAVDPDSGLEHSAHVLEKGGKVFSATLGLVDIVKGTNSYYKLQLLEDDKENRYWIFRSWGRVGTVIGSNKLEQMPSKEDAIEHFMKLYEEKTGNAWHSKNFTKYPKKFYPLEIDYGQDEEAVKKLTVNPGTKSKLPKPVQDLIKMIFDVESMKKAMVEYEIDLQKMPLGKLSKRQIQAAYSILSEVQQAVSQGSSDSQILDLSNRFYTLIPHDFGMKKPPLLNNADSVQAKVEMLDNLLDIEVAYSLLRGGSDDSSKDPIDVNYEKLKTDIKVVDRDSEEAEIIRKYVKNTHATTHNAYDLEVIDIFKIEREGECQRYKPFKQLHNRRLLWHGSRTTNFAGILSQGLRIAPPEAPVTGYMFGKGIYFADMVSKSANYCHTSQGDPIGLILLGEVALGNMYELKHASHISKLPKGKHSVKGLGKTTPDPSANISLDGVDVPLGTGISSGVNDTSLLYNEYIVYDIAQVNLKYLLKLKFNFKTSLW

Which IC50 (HCT-116 [1]) does the source give for `O=c1[nH]c(CNc2ccccc2)nc2sc3c(c12)CCCCCC3` here?
Its IC50 is 11.9 µM.

What about the “Ratio IC50” value (HCT-116 [2]) of the same molecule?
The value was 2.89.

Which results are given for `CC(C)(O)C#Cc1ncnc2sc3c(c12)CCC3`?
inhibition at 20 µM [3]: 54%; inhibition at 10 µM [4]: 30%

Which results are given for `O=c1[nH]cc(F)c(=O)[nH]1` [FLUOROURACIL]?
inhibition at 40 µg/mL (HepG2 [5]): 68.2%; inhibition at 40 µg/mL (MCF7 [6]): 68.2%

Which IC50 (HCT-116 [1]) does the source give for `O=c1[nH]c(CNc2ccc(Cl)cc2)nc2sc3c(c12)CCCCCC3` here?
The IC50 was 12.4 µM.

And the “Ratio IC50” value (HCT-116 [2])?
The value was 1.07.

Which IC50 (HepG2 [7]) does the source give for `CC(=O)OC[C@H](OC(C)=O)[C@@H](OC(C)=O)[C@H](OC(C)=O)[C@H](OC(C)=O)c1nc2c3c4c(sc3nc(C)n2n1)CCc1ccccc1-4` here?
The IC50 was 12 µM.

For `Cc1ccc(NC(=O)c2ccc(CN3CCN(C)CC3)cc2)cc1Nc1nccc(-c2cccnc2)n1` [IMATINIB], which IC50 (HCT-116 [1]) is on record?
Its IC50 is 34.4 µM.

For `Cc1csc2ncnc(C#Cc3ccccn3)c12`, which inhibition at 20 µM [3] is on record?
Its inhibition at 20 µM is 60%.

And the inhibition at 10 µM [4]?
The inhibition at 10 µM was 32%.

Which inhibition at 40 µg/mL (HepG2 [5]) does the source give for `O=c1c2c3c(sc2ncn1Cc1ccc(Br)cc1)CCC=C3` here?
The inhibition at 40 µg/mL was 66.8%.

And the IC50 [8]?
The IC50 was 45 µM.

What about the inhibition at 40 µg/mL (MCF7 [6]) of the same molecule?
The inhibition at 40 µg/mL was 66.8%.

And the IC50 (MCF7 [9])?
Its IC50 is 78.9 µM.

And the IC50 (HepG2 [10])?
The IC50 was 15 µM.

For `NCc1nc2sc3c(c2c(=O)[nH]1)CCC3`, which IC50 [11] is on record?
The IC50 was 17 µM.
